Experimental data taken from patent publication US20240335444A1, “MODULATORS OF BCL6 PROTEOLYSIS AND ASSOCIATED METHODS OF USE” (Arvinas Operations, Inc., priority 2023, published 2024).

Test system: OCI-Ly1
Test: Tumor growth of DLBCL cell line derived xenograft model OCI-Ly1
Assay type: in vivo, mice
Conditions: BCL6 sensitive tumor xenograft model (OCI-Ly1), 10 mg/kg BID
Procedure: Mice bearing subcutaneous tumors were orally (po) administered vehicle or Compound A at 1, 3, 10, or 30 mg/kg daily for 22 days (qd×22). Dosing began with tumors at an average of 140 mm^3. […] Statistical analyses were performed using 2-way ANOVA: p<0.0001 (****). Error bars represent standard error of the mean (±SEM).
Mice bearing subcutaneous tumors were orally (po) administered vehicle or Compound A at 1, 3, or 10 mg/kg bi-daily for 23 days (bid×23). Dosing began with tumors at an average of 170 mm^3. […] FIG. 7C depicts tumor lysate BCL6 protein levels 16-hours post-last dose analyzed by western blotting. Individual tumor BCL6 levels are shown in a scatter plot, mean is represented by the bar, determined by densitometry, normalized to GAPDH loading controls, and shown as a percentage of vehicle. Percent BCL6 degradation (%) relative to vehicle is shown above each arm. Statistical analyses were performed using 2-way ANOVA: p<0.0001 (****). Error bars represent standard error of the mean (±SEM).

| SMILES | Ly-1 TGI @ 10 mg/kg (BID) [%] |
| --- | --- |
| CNC(=O)COc1cc2cc(Nc3nc(N4CCC(O[C@H]5C[C@H](N6CC[C@@H](c7ccc8c(c7F)CN([C@H]7CCC(=O)NC7=O)C8=O)C(C)(C)C6)C5)CC4)ncc3Cl)ccc2n(C(C)C)c1=O [Compound 209, 2-({6-[(5-chloro-2-{4-[(1r,3r)-3-[(4R)-4-{2-[(3S)-2,6-dioxopiperidin-3-yl]-4-fluoro-1-oxo-2,3-dihydro-1H-isoindol-5-yl}-3,3-dimethylpiperidin-1-yl]cyclobutoxy]piperiidn-1-yl}pyrimidin-4-yl)amino]-2-oxo-1-(propan-2-yl)-1,2-dihydroquinolin-3-yl}oxy)-N-methylacetamide] | 104 |
| CNC(=O)COc1cc2cc(Nc3nc(N4CCC(O[C@H]5C[C@H](N6CCN(c7ccc8c(c7)CN([C@H]7CCC(=O)NC7=O)C8=O)C(C)(C)C6)C5)CC4)ncc3Cl)ccc2n(C(C)C)c1=O [Compound 211, 2-({6-[(5-chloro-2-{4-[(1r,3r)-3-(4-{2-[(3S)-2,6-dioxopiperidin-3-yl]-1-oxo-2,3-dihydro-1H-isoindol-5-yl}-3,3-dimethylpiperazin-1-yl)cyclobutoxy]piperidin-1-yl}pyrimidin-4-yl)amino]-2-oxo-1-(proapn-2-yl)-1,2-dihydroquinolin-3-yl}oxy)-N-methylacetamide] | 87 |
| CNC(=O)COc1cc2cc(Nc3nc(N4CCC(O[C@H]5C[C@H](N6CCC(c7ccc8c(c7F)CN(C7CCC(=O)NC7=O)C8=O)CC6)C5)CC4)ncc3Cl)ccc2n(C(C)C)c1=O (some centres unmarked) [Compound 81, 2-({6-[(5-chloro-2-{4-[(1r,3r)-3-{4-[2-(2,6-dioxopiperidin-3-yl)-4-fluoro-1-oxo-2,3-dihydro-1H-isoindol-5-yl]piperidin-1-yl}cyclobutoxy]piperidin-1-yl}pyrimidin-4-yl)amino]-2-oxo-1-(propan-2-yl)-1,2-dihydroquinolin-3-yl}oxy)-N-methylacetamide] | 100 |
| CNC(=O)COc1cc2cc(Nc3nc(N4CCC(O[C@H]5C[C@H](N6CCC(c7ccc8c(c7Cl)CN(C7CCC(=O)NC7=O)C8=O)CC6)C5)CC4)ncc3Cl)ccc2n(C(C)C)c1=O (some centres unmarked) [Compound 163, 2-({6-[(5-chloro-2-{4-[(1r,3r)-3-{4-[4-chloro-2-(2,6-dioxopiperidin-3-yl)-1-oxo-2,3-dihydro-1H-isoindol-5-yl]piperidin-1-yl}cyclobutoxy]piperidin-1-yl}pyrimidin-4-yl)amino]-2-oxo-1-(propan-2-yl)-1,2-dihydroquinolin-3-yl}oxy)-N-methylacetamide] | 95 |
| CNC(=O)COc1cc2cc(Nc3nc(N4CCC(O[C@H]5C[C@H](N6CCC(c7cc(C)c8c(c7F)CN(C7CCC(=O)NC7=O)C8=O)CC6)C5)CC4)ncc3Cl)ccc2n(C(C)C)c1=O (some centres unmarked) [Compound 208, 2-({6-[(5-chloro-2-{4-[(1r,3r)-3-{4-[2-(2,6-dioxopiperidin-3-yl)-4-fluoro-7-methyl-1-oxo-2,3-dihydro-1H-isoindol-5-yl]piperidin-1-yl}cyclobutoxy]piperidin-1-yl}pyrimidin-4-yl)amino]-2-oxo-1-(propan-2-yl)-1,2-dihydroquinolin-3-yl}oxy)-N-methylacetamide] | 77 |
